Measurements reported in US10772840B2 (Charleston Laboratories, Inc., priority 2016, dated 2020).
Where a name gives a salt, the structure may show the parent alone.

Experiment: Dissolution measurement by USP Apparatus 2 (Paddle Apparatus), HPLC analysis
Type: physicochemical
Details: for Dissolution, API released: 500 ml 0.1 N HCl pH 1.1, 37.0° C.; for Dissolution (% release), Max. / Dissolution (% release), Mean / Dissolution (% release), Min.: 500 ml 0.1 N HCl pH 1.1, N=6
Protocol: Dissolution studies were conducted to measure the rates of dissolution of active ingredients using a USP Apparatus 2 (Paddle Apparatus) with a dissolution fluid of 500 ml deaerated 0.1 N HCl (i.e., pH 1.1) at 37.0+/−0.5° C. Dissolution samples were analyzed by HPLC.
Dissolution medium of 0.1N HCl was prepared by mixing approximately 85 ml of concentrated (12N) Hydrochloric Acid with 10 L of water. Stock promethazine HCl standard solution was prepared by adding approximately 30 ml of dissolution medium to 25.0 mg of dried Promethazine Hydrochloride USP reference standard in a 50 ml volumetric flash, diluted to volume with dissolution media, and mixed well. […] The resulting solution is diluted to volume with dissolution medium and mixed well.
The dissolution apparatus used is USP Apparatus 2 (Paddle Apparatus) with a speed of 50 rpm at 37.0° C.±0.5° C. Dissolution medium (500 ml) was Helium sparged for at least 10 minutes. N=6 samples were tested. Sample time point of 5, 10, 15, 20, 30, 45, 60, and 90 minutes (final time point at 250 rpm). Filters: QLA 10 μm in-line full flow porous filter or equivalent; chromafil 1.0 μm on-line glass fiber membrane filter or equivalent.
The dissolution apparatus was assembled and the paddle was positioned so that the distance between its lower edge and the lower inner surface of the vessel is within 25 mm±2 mm throughout the test. This step was repeated for each of the six vessels. The speed (50 rpm) and the temperature (37.0° C.±0.5° C.) were set. 500 mL of 0.1N HCl solution were placed into each of the six vessels, previously degassed via helium purge, degassed using degasser or other suitable means. The Dissolution medium was equilibrated to set temperature and the temperature of the dissolution medium was checked with a thermometer or thermocouple before starting the dissolution. Each of the six (6) capsules were accurately weighed and the weight was recorded. The dissolution test was started. Each capsule was dropped with sinker into vessels noting the station assigned to each recorded capsule weight. The shaft was rotated at 50 rpm. Samples were withdrawn by dissolution auttosampler at 5, 10, 15, 20, 30, 45, 60, and 90 minutes into HPLC vials, or were withdraw manually. Filters (QLA 10 μm in-line full flow porous filter or equivalent; chromafil 1.0 μm on-line glass fiber membrane filter or equivalent) were utilized, discarding at least the first 5 mL of the filtrate, and clear filtrate was transfered into HPLC vials. After withdrawing samples at the 60 minute time point, the paddle rotation speed was increased to 250 rpm until the next time point of 90 minutes.
HPLC conditions: Flow rate: 1.0 ml/min; Injection Volume: 10 μL; Column Temperature: 40° C.±2° C.; Wavelengths: 240 nm; Run Time: 7 minutes; Mobile Phase A was 0.2% TFA in Water, which was prepared by mixing well 2.0 ml of trifluoroacetic acid with 1 L of water. Mobile Phase B: 0.2% TFA in Acetonitrile, which was prepared by mixing well 2.0 ml of trifluoroacetic acid to 1 L of acetonitrile; and Gradient used was as follows in Table 8.
If a Water® dissolution autosampler was utilized, then the Empower Dissolution Software was used to calculate the profile. Calculation are performed using a validated excel spreadsheet. When the sample was performed manually, the volume correction was considered for the calculation.

[1] = in a capsule, after 1 month store at 40° C., 5 min, 50 rpm
[2] = in a capsule, after 1 month store at 40° C., 10 min, 50 rpm
[3] = in a capsule, after 1 month store at 40° C., 15 min, 50 rpm
[4] = in a capsule, after 1 month store at 40° C., 20 min, 50 rpm
[5] = in a capsule, after 1 month store at 40° C., 30 min, 50 rpm
[6] = in a capsule, after 1 month store at 40° C., 45 min, 50 rpm
[7] = in a capsule, after 1 month store at 40° C., 60 min, 50 rpm
[8] = in a capsule, after 1 month store at 40° C., 90 min (250 rpm after 60 min)
[9] = in a capsule, large batch, 5 min, 50 rpm
[10] = in a capsule, large batch, 10 min, 50 rpm
[11] = in a capsule, large batch, 15 min, 50 rpm
[12] = in a capsule, large batch, 20 min, 50 rpm
[13] = in a capsule, large batch, 30 min, 50 rpm
[14] = in a capsule, large batch, 45 min, 50 rpm
[15] = in a capsule, large batch, 60 min, 50 rpm
[16] = in a capsule, large batch, 90 min (250 rpm after 60 min)

Dissolution, API released (content of capsule without shells, 5 min, 50 rpm): 85%
Dissolution, API released (content of capsule without shells, 10 min, 50 rpm): 90%
Dissolution, API released (content of capsule without shells, 15 min, 50 rpm): 92%
Dissolution, API released (content of capsule without shells, 20 min, 50 rpm): 94%
Dissolution, API released (content of capsule without shells, 30 min, 50 rpm): 94%
Dissolution, API released (content of capsule without shells, 45 min, 50 rpm): 95%
Dissolution, API released (content of capsule without shells, 60 min, 50 rpm): 96%
Dissolution, API released (content of capsule without shells, 90 min (250 rpm after 60 min)): 100%
Dissolution (% release), Max. [1]: 56
Dissolution (% release), Mean [1]: 43
Dissolution (% release), Min. [1]: 35
Dissolution (% release), Max. [2]: 77
Dissolution (% release), Mean [2]: 64
Dissolution (% release), Min. [2]: 54
Dissolution (% release), Max. [3]: 83
Dissolution (% release), Mean [3]: 73
Dissolution (% release), Min. [3]: 63
Dissolution (% release), Max. [4]: 88
Dissolution (% release), Mean [4]: 79
Dissolution (% release), Min. [4]: 68
Dissolution (% release), Max. [5]: 92
Dissolution (% release), Mean [5]: 84
Dissolution (% release), Min. [5]: 74
Dissolution (% release), Max. [6]: 96
Dissolution (% release), Mean [6]: 89
Dissolution (% release), Min. [6]: 80
Dissolution (% release), Max. [7]: 98
Dissolution (% release), Mean [7]: 92
Dissolution (% release), Min. [7]: 84
Dissolution (% release), Max. [8]: 103
Dissolution (% release), Mean [8]: 102
Dissolution (% release), Min. [8]: 99
Dissolution (% release), Max. [9]: 63
Dissolution (% release), Mean [9]: 47
Dissolution (% release), Min. [9]: 32
Dissolution (% release), Max. [10]: 87
Dissolution (% release), Mean [10]: 69
Dissolution (% release), Min. [10]: 53
Dissolution (% release), Max. [11]: 92
Dissolution (% release), Mean [11]: 78
Dissolution (% release), Min. [11]: 63
Dissolution (% release), Max. [12]: 95
Dissolution (% release), Mean [12]: 82
Dissolution (% release), Min. [12]: 71
Dissolution (% release), Max. [13]: 97
Dissolution (% release), Mean [13]: 87
Dissolution (% release), Min. [13]: 79
Dissolution (% release), Max. [14]: 99
Dissolution (% release), Mean [14]: 92
Dissolution (% release), Min. [14]: 85
Dissolution (% release), Max. [15]: 101
Dissolution (% release), Mean [15]: 94
Dissolution (% release), Min. [15]: 88
Dissolution (% release), Max. [16]: 105
Dissolution (% release), Mean [16]: 102
Dissolution (% release), Min. [16]: 101
Dissolution, API released (in a capsule, small batch, 5 min, 50 rpm): 55%
Dissolution, API released (in a capsule, small batch, 10 min, 50 rpm): 78%
Dissolution, API released (in a capsule, small batch, 15 min, 50 rpm): 85%
Dissolution, API released (in a capsule, small batch, 20 min, 50 rpm): 88%
Dissolution, API released (in a capsule, small batch, 30 min, 50 rpm): 92%
Dissolution, API released (in a capsule, small batch, 45 min, 50 rpm): 95%
Dissolution, API released (in a capsule, small batch, 60 min, 50 rpm): 97%
Dissolution, API released (in a capsule, small batch, 90 min (250 rpm after 60 min)): 102%
Dissolution, API released (promethazine and sumatriptan pellets, 5 min, 50 rpm): 95%
Dissolution, API released (promethazine and sumatriptan pellets, 15 min, 50 rpm): 102%
Dissolution, API released (promethazine and sumatriptan pellets, 20 min, 50 rpm): 102%
Dissolution, API released (promethazine and sumatriptan pellets, 30 min, 50 rpm): 102%
Dissolution, API released (promethazine and sumatriptan pellets, 45 min, 50 rpm): 102%
Dissolution, API released (promethazine and sumatriptan pellets, 60 min, 50 rpm): 102%
Dissolution, API released (promethazine and sumatriptan pellets, 90 min (250 rpm after 60 min)): 102%
Structure (SMILES): CC(CN1c2ccccc2Sc2ccccc21)N(C)C (centres unmarked) [Promethazine, Promethazine Hydrochloride]
